Experimental data taken from patent US8143237B2, “Anti-cancer drugs, and uses relating for malignant melanoma and other cancers” (Kasina Laila Innova Pharmaceuticals Private Limited, priority 2009, dated 2012).
In brackets after ≈: the same amount, converted by molar mass. Entries after “also recorded” stand apart in the source; their conditions may differ. Like-named read-outs stand apart in the source and are kept apart here.

How the values were obtained:
[1] = tested on: HS.531.sk normal human skin epithelial cells; format: cell-based; conditions: 3 days
Description: (§1) MTT [3-(4,5-dimethylthiazol-2-yl)-2,5-diphenyltetrazolium bromide] incorporation based cell proliferation assay was performed using standard procedure. The cytotoxic efficacies of the various selenopheno triazene compounds (compounds 1 to 16) was evaluated in both human malignant melanoma A375 cells and mouse malignant melanoma B16 F0 cells by MTT cell proliferation assay kit (Roche Applied Sciences, Germany). The assay was carried out according to the instruction provided by the vendor. Briefly, equal numbers of cells was plated in 96-well flat-bottomed plates and were incubated with both DTIC and the test compounds (compounds 1 to 16) at various concentrations for a period of three days. Vehicle control culture wells received only a maximum of 0.5% DMSO. Thereafter, 0.5 mg/ml of MTT reagent was added to each well and the microplate was incubated further for 4 h at 37° C. in presence of 5% CO2. Finally, the cells were solubilized by adding solubilizing solution and allowed to incubate at 37° C. overnight. After complete solubilization of the formazan crystals, the absorbance was read at 540 nm in a microplate reader (BioRad, USA). The results (mean OD±SD) obtained from quadruplicate wells were used in calculation to determine the inhibition of cell proliferation (50% of inhibitory concentration, IC50) of the test compounds (compounds 1 to 16) (Table 1).
Next, to check whether the Compound 1 can selectively kill the melanoma cells without or minimally affecting the normal cells, we assessed the comparative efficacy of the Compound 1 and DTIC on cell growth inhibition of HS.531.sk normal human skin epithelial cells. The growth inhibitory effect of the test compound and DTIC was assessed by MTT proliferation assay as described earlier (Example 17). The comparative efficacies of Compound 1 and DTIC in inhibiting the normal skin epithelial cell growth are depicted in FIG. 2.

[2] = tested on: B16F0 mouse melanoma cells; assay: Matrigel cell invasion assay; format: cell-based; conditions: 24 h
Description: The inhibitory effects of DTIC and compound 1 on invasive ability of B16F0 were tested in cell invasion assay performed with by using Matrigel (BME-Cultrex®, R&D Systems, USA) coated cell culture inserts (Becton Dickinson, USA) with 8 μm-pore membrane. Equal number (fifty thousands) of B16F0 cells were applied in each insert well and allowed to attach for 2 h at 37° C. and in presence of 5% CO2. Thereafter, the cellular invasion through the matrigel layer was performed in presence or absence of test compounds. Either 100 μg/ml of DTIC or 20 μg/ml of Compound 1 was applied in the lower chamber of the invasion assembly. 0.1% DMSO was applied in the vehicle control culture chambers. After 24 h treatment, the matrigel layer containing cells was removed with cotton plug and the invaded cells on the other side of the membrane were fixed with methanol for 5 min and then stained with Giemsa. The stained membrane was mounted on a glass slide and number invaded cells were counted in 20 random fields (20× objective) under a light microscope (Nikon Eclipse TS 100).

B16F0 cells = assay: B16 F0 mouse melanoma cell colony formation assay; format: cell-based; conditions: 8 days
Description: Inhibitory efficacy in clone formation of the Compound 1 and DTIC was tested by following the procedure described earlier with some modifications. Briefly, B 16F0 cells were harvested and seeded into 6-well plates (100 cells/ml). The cells were allowed to grow for 4 days and thereafter, the cells were incubated with DMEM containing either 0.1% DMS 0 or 100 μg/ml DTIC or different concentrations (1, 5, 10 or 20 μg/ml) of Compound 1 for further 8 days. Fresh medium containing test agents was replaced at every 24 h. Finally, the wells were washed three times with PBS and fixed in methanol for 15 min. The cells were stained with Giemsa stain and observed under microscope. The image of the stained wells were captured digitally (Kodak Image Station 4000 mM, Carestream Health Inc., New Haven, Conn.) and number of colonies were counted and analyzed by using NIH Image J software.

[3] = tested on: MCF-7 (ER+) breast tumor cells; assay: MTT based cell proliferation assay, MCF-7; conditions: Homo sapiens, MCF7, read-out: Anti-tumor growth potential (IC50) in MCF-7
Description: as §1, with “Finally, the cells were solubilized by adding solubilizing solution and allowed to incubate at 37° C. overnight.” left out, “The results (mean OD±SD) obtained from quadruplicate wells were used in calculation to determine the inhibition of cell proliferation (50% of inhibitory concentration, IC50) of the test compounds (compounds 1 to 16) (Table 1).” left out
(§2) Anti-tumor growth potential of Compound 1 and DTIC were evaluated in various human tumor cells such as A549 lung tumor cells, DU145 prostate tumor cells, HT29 colon cancer cells and MCF-7 (ER^+) breast tumor cells in vitro, by using MTT based cell proliferation assay as described earlier (example 17). […]

[4] = tested on: DU145 prostate tumor cells; assay: MTT based cell proliferation assay, DU145; conditions: Homo sapiens, DU-145, read-out: Anti-tumor growth potential (IC50) in DU145
Description: as §1, with “Finally, the cells were solubilized by adding solubilizing solution and allowed to incubate at 37° C. overnight.” left out, “The results (mean OD±SD) obtained from quadruplicate wells were used in calculation to determine the inhibition of cell proliferation (50% of inhibitory concentration, IC50) of the test compounds (compounds 1 to 16) (Table 1).” left out
as §2

HT29 colon cancer cells = assay: MTT based cell proliferation assay, HT29; conditions: Homo sapiens, HT-29, read-out: Anti-tumor growth potential (IC50) in HT29
Description: as §1, with “Finally, the cells were solubilized by adding solubilizing solution and allowed to incubate at 37° C. overnight.” left out, “The results (mean OD±SD) obtained from quadruplicate wells were used in calculation to determine the inhibition of cell proliferation (50% of inhibitory concentration, IC50) of the test compounds (compounds 1 to 16) (Table 1).” left out
as §2

A549 lung tumor cells = assay: MTT based cell proliferation assay, A549; conditions: Homo sapiens, read-out: Anti-tumor growth potential (IC50) in A549
Description: as §1, with “Finally, the cells were solubilized by adding solubilizing solution and allowed to incubate at 37° C. overnight.” left out, “The results (mean OD±SD) obtained from quadruplicate wells were used in calculation to determine the inhibition of cell proliferation (50% of inhibitory concentration, IC50) of the test compounds (compounds 1 to 16) (Table 1).” left out
as §2

[5] = tested on: mouse malignant melanoma B16 F0 cells; assay: MTT based cell proliferation assay, B16 F0 cells; conditions: for IC50: Mus musculus, B16F0, 72 h, MTT, three days incubation, read-out: Cell proliferation inhibition in B16F0 cells, IC50
Description: The cytotoxic efficacies of the various selenopheno triazene compounds (compounds 1 to 16) was evaluated in both human malignant melanoma A375 cells and mouse malignant melanoma B16 F0 cells by MTT cell proliferation assay kit (Roche Applied Sciences, Germany). The assay was carried out according to the instruction provided by the vendor. Briefly, equal numbers of cells was plated in 96-well flat-bottomed plates and were incubated with both DTIC and the test compounds (compounds 1 to 16) at various concentrations for a period of three days. […] Finally, the cells were solubilized by adding solubilizing solution and allowed to incubate at 37° C. overnight. After complete solubilization of the formazan crystals, the absorbance was read at 540 nm in a microplate reader (BioRad, USA).

[6] = tested on: Human umbilical vein endothelial cells (HUVEC); assay: In vitro endothelial capillary tube formation assay; format: cell-based; conditions: 16 h
Description: In vitro capillary formation assay was performed with Human umbilical vein endothelial cells (HUVEC), cultured on 10 mg/ml basement membrane extract (BME-Cultrex®, R&D Systems, USA) bed. The protocol of in vitro endothelial tube formation assay was the same as described earlier with some modifications (Diana G et al., J. Cell Biol. 1995; Volume 130: 207-215.). Briefly, four hundred microliters of Cultrex was coated at 4° C. in each well of 24-well culture plate and allowed to gel at 37° C. for 1 h. HUVECs were plated at a density of 7.5×10^4 cells per well with 400 μl of DMEM supplemented with 10% fetal bovine serum and 4.5 g/l D-glucose. The cells were then treated with either DTIC or Compound 1 at desired concentration as indicated for 16 hours. Vehicle control cultures received only 0.1% DMSO. Pictures were taken under a Nikon Eclipse TS 100 microscope equipped with a Nikon Coolpix camera.

SMILES | Growth inhibition of HS.531.sk normal human skin epithelial cells ([1]; 25 μg/ml) [%] | Growth inhibition of HS.531.sk normal human skin epithelial cells ([1]; 50 μg/ml) [%] | B16 F0 melanoma tumor cell invasion vs vehicle control ([2]; 20 μg/ml, p=0.0017) | Reduction in number of B16 colonies (B16F0 cells; at 1 μg/ml) [%] | Reduction in number of B16 colonies (B16F0 cells; at 5 μg/ml) [%] | Reduction in number of B16 colonies (B16F0 cells; at 10 μg/ml) [%] | Reduction in number of B16 colonies (B16F0 cells; at 20 μg/ml) [%] | IC50 [3] [µg/mL] | IC50 [4] [µg/mL] | IC50 (HT29 colon cancer cells) [µg/mL] | IC50 (A549 lung tumor cells) [µg/mL] | Potency of inhibition relative to Dacarbazine, mouse melanoma B16 cells ([5]; MTT IC50 comparison) [times] | IC50 [5] [µg/mL] | Endothelial capillary-like tube formation ([6]; 5 and 10 μg/ml) | B16 F0 melanoma tumor cell invasion vs vehicle control ([2]; 100 μg/ml) | inhibition at 100 µg/mL (B16F0 cells; Mus musculus, B16F0, 192 h, at 100 μg/ml, read-out: Inhibition of B16 colony formation (number of colonies)) [%] | Endothelial capillary-like tube formation ([6]; 100 μg/ml)
Cc1[se]c(C(N)=O)cc1/N=N/N(C)C [Compound 1, 4-[(dimethylamino)diazenyl]-5-methylselenophene-2-carboxamide] | 2.33 | 23.83 | significantly reduced; also recorded: significantly inhibited the invasion | 11 | 35 | 54 | 94 | 7.03 (≈ 27.1 µM) | 8.97 (≈ 34.6 µM) | 13.3 (≈ 51.3 µM) | 7.68 (≈ 29.6 µM) | 5 | 46.6 (≈ 180 µM) | inhibition of capillary formation in a dose dependent manner; also recorded: exhibited anti-angiogenic properties |  |  | 
CN(C)N=Nc1[nH]cnc1C(N)=O [DTIC, 5-(3,3-dimethyl-1-trizeno)-imidazole-4-carboxamide, reference compound] | 34.58 | 43.46 |  |  |  |  |  | 85.1 (≈ 467 µM) | 58.5 (≈ 321 µM) | 141 (≈ 774 µM) | 95 (≈ 521 µM) |  | 325 (≈ 1790 µM) |  | could not significantly inhibit; also recorded: failed to inhibit the tumor cell invasion | 35.8 | promoted capillary formation; also recorded: could not inhibit the endothelial capillary formation
